How the values were obtained:
V600E mutant B-RAF = target: T1, V600E mutant B-RAF (Homo sapiens, UniProt P15056, V600E); assay: V600E Mutant B-RAF 33P Assay; format: biochemical
T1 construct: purchased Upstate
Experimental: Substrate (HIS-MEK1 K97M) is prepared by Celgene Corp. as described above.
Test compound is diluted in 100% DMSO (600 μM). […] Substrate mixture is prepared as 7.5 μM HIS-MEK1 K97M in assay buffer. ATP mixture is prepared as 300 μM ATP, 75 mM MgCl2, 0.05 μCi/μl ^33P ATP in assay buffer.
In a 96 well assay plate (Falcon Polylpropylene well U-bottom), the following are added to each well: 2.5 μl of test compound solution (serial dilutions), 20 μl of substrate mixture and 17.5 μl of enzyme mixture. The plate is incubated for at least 15 minutes. 10 μl of ATP mixture is added and the plate is incubated at room temperature for about 60 minutes. 80 μl of 12.5% TCA is added to each well, and the plate is incubated for at least 20 minutes. The contents of the plate is transferred to a glass fiber filter plate (Millipore) using a Packard Harvester (washing 10× with 1×PBS). 50 μl of Scintillation-20 fluid is added to each well. The plate is read using a Packard TopCount.

A375 cells = assay: Alamar Blue Viability Assay; format: cell-based; conditions: 3 days
Experimental: A375 cells (ATCC # CRL-1619; Passage 4˜15; doubling time is roughly 18 hours) are used. Culture medium is DMEM (high glucose, with L-glutamine)+10% FBS+Pen/Strep. Cells are passed every three days at 1:20.
200 μl of medium only is added into all wells along the edges of a 96-well flat bottom plate and 180 μl of cell suspension (containing 1,000 cells) per well is added into the plate with a Low Evaporation Lid (Costar Cat # 3595). The cells are cultured overnight. Compounds and controls are diluted according to standard compound dilution protocol described below. From 30 mM stock solution, 10 mM, 3 mM, 1 mM, and 0.3 mM solutions in 100% DMSO are prepared using the following serial dilution protocol:
The 30, 10, 3, 1 and 0.3 mM solutions are diluted 1:50 (DMSO:medium) by adding 4 μl of each to 196 μl of culture medium. This yields 600 μM, 200 μM, 60 μM, 20 μM, and 6 μM secondary stock solutions. 4 μl of DMSO are added to 196 μl medium for the DMSO control as well. 20 μl of compound dilutions, including the DMSO control locations (Row G, Columns 2-10 are DMSO control wells), are added in triplicate to the cells in the 96-well plate using a repeat pipettor (see plate layout below). This yields final concentrations of 60 μM, 20 μM, 6 μM, 2 μM, and 0.6 μM containing 0.2% DMSO in each well. The plate is gently tapped to evenly distribute compound within the well. The plate is incubated at 5% CO2 at 37° C. for 3 days.
20 μl of Alamar Blue (Biosource #DAL-1100) is added to each well. The plate is incubated in 5% CO2 incubator for 4 hours. Fluorescence is measured with excitation wavelength at 530 nm and emission wavelength at 590 nm using a Victor 2 multilabel plate reader (Perkin Elmer). Data is saved with plate format as a Text file and entered into ActivityBase (Cell-based SAR; Prolif-Alamar; MTT 5 plates unfixed fit) to calculate the percent of DMSO values for each compound set of triplicate wells and IC50 curves are plotted.

T1 sequence (P15056 whole entry V600E): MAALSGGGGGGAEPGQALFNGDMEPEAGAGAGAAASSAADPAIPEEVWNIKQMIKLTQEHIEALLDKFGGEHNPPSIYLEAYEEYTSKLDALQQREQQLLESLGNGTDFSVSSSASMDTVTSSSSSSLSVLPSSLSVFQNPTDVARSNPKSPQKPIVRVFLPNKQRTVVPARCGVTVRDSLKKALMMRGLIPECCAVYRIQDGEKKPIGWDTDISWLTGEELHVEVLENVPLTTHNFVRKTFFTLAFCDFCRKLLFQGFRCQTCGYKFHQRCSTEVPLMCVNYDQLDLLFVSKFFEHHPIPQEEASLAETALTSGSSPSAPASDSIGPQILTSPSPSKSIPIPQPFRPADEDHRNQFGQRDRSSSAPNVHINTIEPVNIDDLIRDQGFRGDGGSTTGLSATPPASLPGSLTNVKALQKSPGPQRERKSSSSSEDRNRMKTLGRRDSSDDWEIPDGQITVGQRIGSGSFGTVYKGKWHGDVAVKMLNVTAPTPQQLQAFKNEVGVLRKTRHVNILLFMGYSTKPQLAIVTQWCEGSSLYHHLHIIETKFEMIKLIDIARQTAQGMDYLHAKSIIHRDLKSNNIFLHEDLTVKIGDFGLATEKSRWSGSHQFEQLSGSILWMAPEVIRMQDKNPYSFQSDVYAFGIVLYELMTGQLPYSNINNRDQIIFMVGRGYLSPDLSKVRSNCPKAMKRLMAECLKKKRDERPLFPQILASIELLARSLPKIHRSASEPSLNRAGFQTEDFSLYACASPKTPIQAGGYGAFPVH

SMILES | IC50 (V600E mutant B-RAF) [µM] | IC50 (A375 cells; Homo sapiens, A-375, 72 h) [µM] | IC50 (A375 cells) [µM]
NC(=O)c1sc2nc(NC3CC3)nc(-c3ccc(OCc4ccccc4)nc3)c2c1N [Example 168] | 0.1 to 10 | 20 to 30 | –
NC(=O)c1sc2nc(NC3CC3)nc(-c3ccc(O)nc3)c2c1N [Example 170] | 30 to 60 | > 60 | –
COc1cncc(-c2nc(N[C@@H](C)CO)nc3sc(C(N)=O)c(N)c23)c1 [Example 177] | – | 10 to 20 | –
CCc1cncc(-c2nc(NC(C)(C)CO)nc3sc(C(N)=O)c(N)c23)c1 [Example 178] | 0.1 to 10 | 10 to 20 | –
CC(C)(CO)Nc1nc(-c2cncc(OCc3ccccc3)c2)c2c(N)c(C(N)=O)sc2n1 [Example 179] | 30 to 60 | 10 to 20 | –
CC(C)(CO)Nc1nc(-c2cncc(O)c2)c2c(N)c(C(N)=O)sc2n1 [Example 180] | 0.1 to 10 | 10 to 20 | –
NC(=O)c1sc2nc(NC3CC3)nc(-c3ccccc3OCc3ccccc3)c2c1N [Example 182] | 30 to 60 | 30 to 60 | –
NC(=O)c1sc2nc(NC3CC3)nc(-c3ccccc3O)c2c1N [Example 183] | 0.1 to 10 | 30 to 60 | –
COc1cccc(-c2nc(N)nc3sc(C(N)=O)c(N)c23)c1 [Example 184] | 0.1 to 10 | 20 to 30 | –
NC(=O)c1sc2nc(NC3CC3)nc(-c3ccccc3F)c2c1N [Example 186] | 0.1 to 10 | 20 to 30 | –
NC(=O)c1sc2nc(NC3CC3)nc(-c3c(F)cccc3F)c2c1N [Example 187] | 0.1 to 10 | 20 to 30 | –
NC(=O)c1nc(-c2ccc(Cl)c(Cl)c2)c2c(N)c(C(N)=O)sc2n1 [Example 193] | 0.1 to 10 | – | 20 to 30
CC(C)[C@H](CO)Nc1nc(-c2ccc(Cl)c(Cl)c2)c2c(N)c(C(N)=O)sc2n1 [Example 198] | 0.1 to 10 | – | 10 to 20
CC(C)(C)Nc1nc(-c2ccc(Cl)c(Cl)c2)c2c(N)c(C(N)=O)sc2n1 [Example 209] | 0.1 to 10 | 10 to 20 | –
C[C@@H](CO)Oc1nc(-c2ccc(Cl)c(Cl)c2)c2c(N)c(C(N)=O)sc2n1 [Example 211] | – | 10 to 20 | –
C[C@H](O)[C@H](C)Oc1nc(-c2ccc(Cl)c(Cl)c2)c2c(N)c(C(N)=O)sc2n1 [Example 213] | 0.1 to 10 | > 60 | –
CC(C)(O)CNc1nc(-c2ccc(Cl)c(Cl)c2)c2c(N)c(C(N)=O)sc2n1 [Example 215] | 0.1 to 10 | 10 to 20 | –
CC(C)(CN1CCCC1)Nc1nc(-c2ccc(Cl)c(Cl)c2)c2c(N)c(C(N)=O)sc2n1 [Example 216] | 0.1 to 10 | 10 to 20 | –
CC(O)CCNc1nc(-c2ccc(Cl)c(Cl)c2)c2c(N)c(C(N)=O)sc2n1 (stereo not shown) [Example 221] | 0.1 to 10 | 10 to 20 | –
CCCCNc1nc(-c2ccc(Cl)c(Cl)c2)c2c(N)c(C(N)=O)sc2n1 [Example 223] | 0.1 to 10 | – | –
NC(=O)c1sc2nc(NC3CNC3)nc(-c3ccc(Cl)c(Cl)c3)c2c1N [Example 227] | 0.1 to 10 | 0.1 to 10 | –
NC(=O)c1sc2nc(N[C@@H]3CCOC3)nc(-c3ccc(Cl)c(Cl)c3)c2c1N [Example 229] | 0.1 to 10 | 10 to 20 | –
NC(=O)c1sc2nc(NC3CC3)nc(-c3cccc(N)c3)c2c1N [Example 245] | – | > 60 | –
COc1cc(-c2nc(NC(C)(C)CO)nc3sc(C(N)=O)c(N)c23)cc(Cl)c1Cl [Example 263] | – | 10 to 20 | –
COc1cncc(-c2nc(N)nc3sc(C(N)=O)c(N)c23)c1 [Example 277] | – | 0.1 to 10 | –
COc1ccc(NC(=O)Nc2cccc(-c3ncnc4sc(C(N)=O)c(N)c34)c2)cc1 [Example 283] | – | 10 to 20 | –
NC(=O)c1sc2ncnc(-c3cccc(Nc4nc5cc(C(F)(F)F)ccc5[nH]4)c3)c2c1N [Example 287] | – | 0.1 to 10 | –
NC(=O)c1sc2ncnc(-c3cccc([N+](=O)[O-])c3)c2c1N [Example 289] | – | 10 to 20 | –
NC(=O)c1sc2ncnc(-c3cccc(N)c3)c2c1N [Example 290] | – | 10 to 20 | –
NC(=O)c1sc2ncnc(-c3cccc(NC(=O)Nc4ccccn4)c3)c2c1N [Example 294] | – | 10 to 20 | –
